The record followed here is a melting point compilation (Tetko et al.; mined from patent text by program, amines drawn as free bases though some values may be those of a salt).

Turning to `CS(=O)(=O)N1CCN([C@@H](CNS(=O)(=O)c2ccc(OCc3ccccc3)cc2)C(=O)NO)CC1`, the melting point – broadly, the temperature of the solid-liquid transition – is 165 °C.
The value for `Cc1ccc(-c2occc2C#N)cc1` was 66 °C.
Molecule `CC1CCCCC1N(Cc1ccc(C(=O)NC(C)(C)C(=O)O)cc1)S(=O)(=O)c1ccc(C(F)(F)F)nc1` (stereo unspecified) gave a melting point of 131 to 132 °C.
Regarding `COc1ccc(C(=O)Nc2ccccc2)cc1NC(=S)Nc1ccccc1C`, the melting point was in the range of 172 to 174 °C.
On to `COc1ccc(C(=O)Nc2nc(-c3cccc(C#N)c3)c(-n3cncn3)s2)cc1`, for which the melting point lay in the range of 292 to 294 °C.
`CCONC(CC)=C1C(=O)CC(C(C)(C)Sc2ccc(C)cc2)CC1=O` (stereo unspecified) came in with a melting point of 77.5 to 79 °C.
The figure for `Nc1ccc(CO)cc1N` is 74 to 75 °C; for `COC(=O)c1c(CC#N)c(-c2ccc3c(c2)OCO3)c2c3c(ccc2c1C)OCO3` it is 215 to 217 °C; for `O=C1NC(=O)C(=Cc2ccc(C(=O)CCc3ccccc3)nc2)S1` it is over 250 °C.
For `O=Cc1cccc(OCCCN2C(=O)c3ccccc3C2=O)c1`, the melting point was in the range of 102 to 104 °C.
Take `Nc1cccc2c1CC(O)CC2` (stereo unspecified): the melting point lay within 88 to 91 °C.
In turn, `CC1(C)OC(=S)Nc2ccc(-c3ccc(C#N)o3)cc21` displayed a melting point of 200 °C.
`CC(C)(C)c1cc(-c2c(S)ssc2=S)cc(C(C)(C)C)c1O`: the melting point is 182 °C.
Molecule `c1cc(NC2=NCCO2)c2occc2c1` yielded a melting point of 124 to 126 °C.
`COC(=O)c1c(OC)ccc(OC)c1N=CN(C)C` had a melting point of 81 to 83 °C.
Turning to `Cc1cc(Br)cnc1CCCCN`, the melting point was 35 to 37 °C.
Turning to `CCOC(=O)C1=C(C)NC(=S)NC1c1cccc([N+](=O)[O-])c1` (stereo unspecified), the melting point was 208 to 209 °C.
The value for `N#Cc1c[nH]c(-c2ccc3ccccc3c2)c1` was 200 to 206 °C.
Take `COC(=O)c1ccc(OC)c(Nc2ccccc2)c1`: the melting point was 79 to 81 °C.
The figure for `CCCCCCC1(CCn2ccnc2)SCCS1` is 110 to 116 °C.
Consider `Cc1nc(C(F)(F)F)ccc1/C=C/C(=O)Nc1ccc2ncsc2c1`, for which the melting point is 196 °C.
As for `O=C1CC(=O)c2cc(OCCCOc3ccccc3)ccc21`, the melting point lay in the range of 91 to 94 °C.
In turn, `COc1ccc(C2=N[C@H](c3ccccc3)[C@@H](OC(=O)Oc3ccc([N+](=O)[O-])cc3)CO2)cc1` (racemic) came in with a melting point of 164 °C.
On to `CCOC(=O)N1CCC(C#N)(NC(=O)C(CC2CCCCC2)NC(=O)N2CCOCC2)CC1` (stereo unspecified), for which the melting point was in the range of 140 to 143 °C.
`COc1cccc(C(=O)Nc2cnn(Cc3c(C)noc3C)c2)c1`: the melting point was in the range of 127 to 129 °C.
The figure for `Cn1ncc(/C=C/C(=O)Nc2ccc(CNC(=O)c3ccccc3)cc2)c1-c1ccc(F)cc1` is 250 to 251 °C.
`O=CC1=Cc2cc(-c3ccccc3)ccc2OC1` showed a melting point of 108 to 110 °C.
In turn, `CCCS(=O)c1c2ccccc2nc2c1c(C)nn2-c1ccccn1` (stereo unspecified) yielded a melting point of 125 to 127 °C.
The figure for `S=c1[nH]nc(C=Cc2ccc3ccccc3c2)o1` is over 250 °C.
Molecule `O=C(O)Cc1cc(Cc2nc3c(F)c(F)cc(F)c3s2)cc(C(=O)O)c1` had a melting point of 203 to 205 °C.
As to `O=C(O)CN(C(=O)OCc1ccccc1)c1ccc(O)cc1`, the melting point was 196 to 198 °C.
The value for `CN=C(Cc1ccccc1)N1CC2C(=O)CCC(c3ccccc3)(c3ccccc3)C2C1` (stereo unspecified) was 110 °C.
Turning to `Nc1nc2cc(Br)ccc2c2c1nc1n2CCCO1`, the melting point was in the range of 273 to 276 °C.
Molecule `CCCC1=C(C(=O)OCC)C(c2csc3ccccc23)c2c[nH]nc2N1` (stereo unspecified) had a melting point of 222 °C.
With `CCCCCc1c(/C=C/C(=O)O)oc2cc(OC)ccc12`, the melting point lay in the range of 146 to 147 °C.
Regarding `COc1nc(OS(=O)(=O)C(F)(F)F)cc2cccnc12`, the melting point is 99 to 101 °C.
The figure for `Cc1c(-c2ccccc2)oc2c(S(=O)(=O)NCCO)cccc2c1=O` is 186 to 187 °C; for `Cc1nc(NC(=O)c2cnn3c(C(F)F)cc(-c4ccc(C(F)(F)F)cc4)nc23)sc1S(=O)(=O)N(C)CCO` it is 216 °C; for `CC1=CC(c2ccc(Cl)c(Cl)c2)C2=C(CCCC2=O)N1` (stereo unspecified) it is 199 to 201 °C.
On to `Cc1nccn1-c1cccc(C2=Nc3cc(O)c(-c4ccc(F)cc4)cc3NC(=O)C2)c1`, for which the melting point was found to be 260 °C.
As to `CCCCCCCCCCCc1ccc(F)c(-c2nc(-c3ccccc3Cl)nn2C)c1`, the melting point was 35 to 37 °C.
Take `CC(C)(C)CC1(C)CC(C)(C)c2ccc(O)cc21` (stereo unspecified): the melting point turned out to be 102 °C.
The value for `COC(=O)CCCNC(=O)C(CO)NS(=O)(=O)c1ccc(Cl)cc1` (racemic) was 119 to 121 °C.
`NC(=O)c1c(Cl)cn2c1CN(S(=O)(=O)c1ccc(C(F)(F)F)cc1)CC2` returned a melting point of 159 to 160 °C.
`Cc1oc(-c2ccccc2)nc1COc1ccc(COc2ccc(-c3ccccc3)cc2CC(=O)O)cc1` returned a melting point of 102 to 103 °C.
`CC(=O)C1CCC2C3CCC4CC(=O)CCC4(C)C3C(OC(=O)CCl)CC12C` (stereo unspecified) gave a melting point of 133 to 135 °C.
In turn, `COc1cccc(Oc2ncccc2C#N)c1` had a melting point of 66 to 68 °C.
In turn, `Cc1c(F)c(F)nc(-c2ccc(C(F)(F)F)cc2)c1F` displayed a melting point of 52 °C.
Take `Cc1c2ccccc2c(C(=O)O)c2c(C(=O)O)cccc12`: the melting point was 275 to 280 °C.
The figure for `CCCCCCCCCCCCCCCc1cc2cc(C(=O)OC)ccc2[nH]1` is 89 to 92 °C.
The value for `CC(C)(Br)C(=O)NOCc1ccccc1` was 88.6 to 91.1 °C.
Regarding `Cc1oc(-c2ccccc2)nc1CCOc1ccc(C=CC#N)cc1`, the melting point fell in the range of 112 to 113 °C.
In the case of `COC(=O)C1(Cl)C[C@H](OC(C)=O)[C@@H](NC(C)=O)[C@H]([C@H](OC(C)=O)[C@@H](COC(C)=O)OC(C)=O)O1` (stereo partly specified), the melting point lay in the range of 116 to 118 °C.
In turn, `N#CC1CCCn2cccc21` (stereo unspecified) gave a melting point of 47 to 49 °C.
The molecule `Cc1nc2c(N[C@@H]3c4ccccc4C[C@H]3O)cc(C(=O)N(C)C)cn2c1C` (relative stereo) gave a melting point of 148 to 149 °C.
The value for `NCCNc1nc2ccccc2n(-c2ccc(Cl)cc2)c1=O` was 173 to 174 °C.
As for `Nc1ncc(-c2cc(N3CCOCC3)nc(-n3c(C(F)F)nc4ccccc43)n2)cn1`, the melting point is 281 to 285 °C.
`CC(C)c1nsc2c1C(=O)N(C(C)(C)C)C2=O`: the melting point is 52 to 53 °C.
In the case of `O=[N+]([O-])c1ccc(CCCNCCO)cc1`, the melting point is 82.5 to 84.5 °C.
Turning to `COc1ccc(Br)c(C(=O)N2CCN(S(=O)(=O)c3ccc(Br)cc3)CC2)c1`, the melting point was 180 °C.
Consider `CC(NC(=O)Cc1cc(F)cc(F)c1)C(=O)C1(N)N=C(c2ccccc2)c2cc(Cl)ccc2N(C)C1=O` (stereo unspecified), for which the melting point fell in the range of 126 to 130 °C.
`Cc1nnc(Cl)c(-c2c(F)cc(F)cc2F)c1-c1cccs1` returned a melting point of 90 to 92 °C.
`CNC(=S)NCC1CN(c2ccc(N3CCOCC3)c(F)c2)C(=O)O1` (stereo unspecified) came in with a melting point of 158 to 160 °C.
The figure for `C=CCOC1CC2C3CCC4=CC(=O)CCC4(C)C3(F)C(O)CC2(C)C1(O)C(=O)CO` (stereo unspecified) is 189 to 191 °C; for `CCCOCOCCc1ccc(OCCCOC(=O)C2=C(C)NC(C)=C(C(=O)OC)[C@@H]2c2cccc([N+](=O)[O-])c2)cc1` it is under 50 °C; for `NC1CCn2c1nc1cc(NC(=O)c3cc4cc(F)ccc4n3Cc3cccc(F)c3)cnc12` (stereo unspecified) it is 218 to 220 °C.
`CSCCOc1ccc(OCC(O)CO)cc1` (stereo unspecified) registered a melting point of 59 to 61 °C.
Regarding `CSc1ccc(NC(=O)N(C)O)cc1`, the melting point lay in the range of 146 to 148 °C.
The molecule `OCCn1cc(C(F)(F)F)nc1-c1ccc(O)cc1` showed a melting point of 186 to 188 °C.
For the molecule `COC(=O)Cc1ccc(CN2CCN(C(c3ccccc3)c3ccccn3)CC2)cc1` (stereo unspecified), the melting point was 122 to 123 °C.
The molecule `COc1ccc(-c2cc(=Nc3c(C)cc(C)cc3C)n(C)c(N3CCN(C(=O)c4ccc(F)cc4)CC3)n2)cc1OC` had a melting point of 117 to 121 °C.
The molecule `CC1=NNC(=O)N(N)C1` returned a melting point of 117 to 119 °C.
The figure for `Cc1ccccc1C(=O)Nc1ccc(C(=O)N2Cc3cccn3Cc3ccccc32)cc1` is 212 to 215 °C; for `COc1ccccc1C(Nc1ccncc1)c1ccccc1` (stereo unspecified) it is 143 to 145 °C; for `CN(C)CCOc1cnc(Nc2cc(-c3cccc(-n4ncc5cc(C(C)(C)C)cc(F)c5c4=O)c3CO)nn(C)c2=O)cn1` it is 185 to 190 °C.
`COc1ccc(-c2cc(C=O)c3occc3c2)cc1`: the melting point lay within 94 to 95 °C.
In turn, `Cn1cc(NC=O)cc1C(=O)O` displayed a melting point of 208 to 210 °C.
Molecule `O=S1(=O)N=CN(C2CCCC2)c2cc(Cl)c(Cl)cc21` showed a melting point of 189 to 191 °C.
Turning to `N#CCCCCCN1CCc2c(c3cc(F)ccc3n2-c2ccc(F)cc2)C1`, the melting point was in the range of 90 to 98 °C.
`CC1CC(=O)c2cc(Cl)c(F)cc2O1` (stereo unspecified): the melting point is 88 to 90 °C.
As for `COc1ccc(-c2nc(S(=O)(=O)CC(F)(F)F)[nH]c2-c2ccc(OC)cc2)cc1`, the melting point lay in the range of 173 to 174 °C.
For the molecule `O=C1C=C(NC(=O)C(=O)c2cn(Cc3ccc(Cl)cc3)c3ccccc23)CO1`, the melting point fell in the range of 253 to 255 °C.
Consider `CCOC(=O)C1=Cc2cc(Br)ccc2SC1`, for which the melting point is 87 °C.
In turn, `CC(C)(O)c1ccc(C#N)cc1` returned a melting point of 45 to 47 °C.
`CCOCCCN(C)Cc1ccc(NC(=O)C2=Cc3cc(-c4ccc(C)cc4)ccc3OCC2)cc1`: the melting point fell in the range of 119 to 122 °C.
For the molecule `COc1ccc(Nc2cc(NCCCO)ncn2)cc1`, the melting point lay in the range of 151 to 152 °C.
On to `COc1cc(CSC2=NCCS2)nc(N)n1`, for which the melting point was 122 to 124 °C.
The molecule `COc1ccc(C(=O)Cc2c(Cl)cncc2Cl)c2c1OCC2CC(=O)OCc1ccccc1` (stereo unspecified) came in with a melting point of 120 to 122 °C.
The molecule `C=CCC1C(=NO)C2CCC1CC2` (stereo unspecified) registered a melting point of 124 to 125 °C.
The molecule `COc1ccc(C(=O)Nc2ccc(C(C)(C)CNC(C)=O)c(-c3cccnc3)c2)cc1OC` yielded a melting point of 234 to 237 °C.
`O=C1CNc2c(Cl)cccc2N1` registered a melting point of 191 to 193 °C.
